The record followed here is patent US10729666B2, “Use of GABAA receptor reinforcing agent in preparation of sedative and anesthetic medicament” (Sichuan Haisco Pharmaceutical Co., Ltd., priority 2014, dated 2020).

In series [1] the test system is ICR mice. Put plainly: Righting reflex experiment on mice. The settings on record: for HD7 / Anesthesia induction time / Anesthesia maintenance time / SI / TI: intravenous; for HD7: dose required to cause a 7-min anesthesia; for Anesthesia induction time: end of administration until loss of righting reflex; for Anesthesia maintenance time: loss until recovery of righting reflex; for ED50: Mus musculus, iv; for SI: safety index, LD5/ED95; for TI: therapeutic index, LD50/ED50. Here is the method: (§1) LD5 (5% lethal dose): dose required to cause 5% of animals to die in a test.
(§2) If a normal animal was able to immediately body-right after being pushed over or made lying on its back, such a reflex was determined as the righting reflex. Otherwise, loss of the righting reflex and the time of loss were recorded, and a reflex recovery time was recorded when the animal restored the righting reflex. The period from finishing of drug administration until loss of the righting reflex was recorded as the anesthesia induction time, and the period from loss of the righting reflex until recovery of the righting reflex was recorded as the anesthesia maintenance time.
(§3) TI (therapeutic index, i.e. LD50/ED50), SI (safety index, i.e. LD5/ED95).
(§4) MTD (maximum tolerated dose): the maximum dose able to cause 100% of animals to loss the righting index without death.
(§5) Indicators such as median effective dose (ED50), median lethal dose (LD50), therapeutic index (TI, i.e. LD50/ED50), safety index (SI, i.e. LD5/ED95), anesthesia induction time, anesthesia maintenance time, and maximum tolerated dose (MTD) were used to evaluate the effect and safety of anesthesia. […] After adapting to the laboratory environment, laboratory animals were fasted for 12 hours. On the next day, administration was carried out at 10 mg/kg body weight. Upon intravenous injection, the time of loss of the righting reflex was recorded. The period from finishing of drug administration until loss of the righting reflex was recorded as the anesthesia induction time, and the period from loss of the righting reflex until recovery of the righting reflex was recorded as the anesthesia maintenance time. The anesthesia induction time and the anesthesia maintenance time were used to indicate how strong an anesthetic effect was. Meanwhile, the dose required to cause a 7-min anesthesia (HD7) was measured and used to evaluate relative efficacy.

The nature of series [2]: Righting reflex experiment on mice. The settings on record: both, ICR, mouse, in vivo, iv. The method, then:
as §1, §2, §3, §4, §5

Series [3] relates to healthy male volunteers. Put plainly: Preliminary pharmacodynamic studies with healthy humans. It is filed as in vivo. Particulars: single intravenous injection of the emulsion injection. Here is the method: The subjects were fasted during the night for 6 hours or longer. The Emulsion injection of Compound 7 was administered by single intravenous injection. Groups 1 and 2 were administered by manual push injection for 2 to 3 seconds, and Groups 3-8 were administered by constant-rate pump injection for more than 1 min.
Primary indices include RASS and the tolerance to pain during injection (Verbal rating scale (VRS) was used to allow the researchers to know the pain degree of subjects); and secondary indices include cardiovascular indices and EEG (electroencephalogram) and BIS (Bispectral index) associated with the cognitive function recovery evaluation (QoR-40).

In series [1] (ICR mice), `C[C@H](c1cccc([C@H](C)C2CC2)c1O)C1CC1` [Compound 9, 2-[(1S)-1-cyclopropylethyl]-6-[(1R)-1-cyclopropylethyl]phenol] showed an HD7 of 2.5 mg/kg.

For the compound `CC(C)c1cccc(C(C)C2CC2)c1O` (racemic) [Compound 1, 2-(1-cyclopropylethyl)-6-isopropylphenol], in series [1] (ICR mice), the HD7 is given as 6.0 mg/kg, the Anesthesia induction time is <15.0 s, the Anesthesia maintenance time is on record as 660.4 s and the SI was determined as 1.7. Besides, the TI in series [1] (ICR mice) is recorded as 6.1. The compound further yielded a 50% effective dose (ED50) in series [1] of 3.7 mg/kg. In series [2], the MTD is 10 mg/kg.

Regarding `CC(C)c1cccc([C@@H](C)C2CC2)c1O` [Compound 8, 2-[(1S)-1-cyclopropylethyl]-6-isopropyl-phenol], in series [1] (ICR mice), the Anesthesia induction time was <15.0 s, the Anesthesia maintenance time turned out to be 1031.6 s, the SI stood at 3.5 and the TI worked out at 7.5. For the same compound, the 50% effective dose (ED50) in series [1] was 5.8 mg/kg. In series [2], the LD50 was 43.6 mg/kg and the MTD was determined as 20 mg/kg.

With `CC(C)c1cccc([C@H](C)C2CC2)c1O` [Compound 7, 2-[(1R)-1-cyclopropylethyl]-6-isopropyl-phenol], in series [3], the “dose with which subjects started showing light anesthesia” value is on record as 0.128 mg/kg.

In series [1] (ICR mice, intravenous injection, solvent 10% DMSO, 15% solutol HS15, 75% saline), `C[C@@H](c1cccc([C@H](C)C2CC2)c1O)C1CC1` [Compound 10, 2,6-bis[(1R)-1-cyclopropylethyl]phenol] came in with an LD50 of 6.3 mg/kg. In series [1] (ICR mice), this compound came in with an Anesthesia maintenance time of 754.4 s, an SI of 3.8 and a TI of 4.1. It took a dose of 1.5 mg/kg to reach the 50% effect level in series [1] (ED50). Moreover, in series [2], the MTD worked out at 5 mg/kg.
